Experiments:
[1] = test system: MCF-7 cells; assay: In vitro cell proliferation assay by BrdU method; type: cell-based; conditions: 72 hours, 10% FBS
Method: In Vitro Cell Inhibitory Activity of the Compound of the Present Invention
Experimental method: Cell proliferation assay was carried out by BrdU method (BrdU cell proliferation assay kit, Cell Signaling Technology Co.)
Preparation of gradient dilution solution of test compound: the 10 mM stock solution of test compound was subjected to 4-fold serial gradient dilution with DMSO to obtain solutions with a concentration of 2.5 mM, […], respectively. 2 μL of DMSO-diluted compound was added to 198 μL of culture medium containing 10% FBS to obtain 10-fold test compound, wherein the maximum concentration of the test compound was 10 μM, the DMSO concentration was 1%, with a total of 7 concentration gradients.
MCF-7 culture medium: DMEM+10% FBS+0.01 mg/mL insulin
(1) Cells grown to 80% (in exponential growth phase) were digested with pancreatin, and were collected by centrifugation. MDA-MB-435S cells and U87MG cells were re-suspended in a FBS-free culture medium, counted and inoculated to a 96-well plate; MDA-MB-435S cells were inoculated at 3000 cells/well/81 μL, and U87MG cells were inoculated at 4000 cells/well/81 μL. MCF-7 cells were resuspended in a culture medium containing 1% FBS, counted and inoculated to a 96-well plate at 4000 cell/well/82 μL. The cells were incubated in a cell incubator at 37° C.
(2) After 24 hours of incubation, FBS (9 μL) was added to each well of the MDA-MB-435S cells and U87MG cells, and 8 μL of FBS was added to each well of the MCF-7 cells, so as to obtain a final FBS concentration of 10%.
(3) A different concentration of 10-fold test compound (10 μL) was added to each well to obtain a final concentration of test compound of 10 μM, 2.5 μM, 625 nM, 156 nM, 39 nM, 9.8 nM or 2.5 nM, respectively, with 3 repeated wells/group, and the cells were incubated at 37° C. for 72 hours.
(4) 10-fold BrdU solution (10 μL) was added to each well, and the cells were incubated in the incubator for 4 hours, followed by discarding the culture medium.
(5) Fixing/denaturation solution (10 μL) was added to each well, and the cells were incubated at room temperature for 30 minutes, followed by discarding the solution.
(6) 1-fold detection antibody solution (100 μL) was added to each well, the cells were incubated at room temperature for 1 hour, followed by discarding the solution, and the cells were washed with 1-fold washing solution (200 μL/well) three times.
(7) 1-fold HRP-labelled secondary antibody solution (100 μL) was added to each well, the cells were incubated at room temperature for 30 minutes, followed by discarding the solution, and the cells were washed with 1-fold washing solution (200 μL/well) three times.
(8) TMB substrate solution (100 μL) was added to each well, and the cells were incubated at room temperature for 30 minutes.
(9) Stop solution (100 μL) was added to each well, and the OD value at 450 nm was measured by a microplate reader.
1) Cell survival rate (%)=(ODtest compound−ODblank control)/(ODnormal cell control−ODblank control)×100%,
2) The data was processed by GraphPad Prism 5 software to obtain the curve and IC50 values.

[2] = test system: metastatic breast cancer; conditions: drug alone, patients with hormone receptor-positive metastatic breast cancer, Phase I; cited from earlier work

IC50 [1]: 120 nM
Substance: Abemaciclib [LY2834219, reference compound]
clinical benefit rate [2]: 61%
